Reference: US20240122180A1, “FUNGICIDAL HALOMETHYL KETONES AND HYDRATES AND THEIR MIXTURES” (FMC Corporation, priority 2020, published 2024)

Tests used:
[1] = tested on: Phakopsora pachyrhizi (the causal agent of Asian soybean rust); assay: Test A: preventive spray on soybean seedlings, visual disease rating (100 = 100% control; * 50 ppm, ** 10 ppm, *** 250 ppm); format: in vivo; settings: soybean seedlings, 100 = 100% disease control
Excerpt: (§1) General protocol for preparing test suspensions for Tests A-E: the test compounds were first dissolved in acetone in an amount equal to 3% of the final volume and then suspended at the desired concentration (in ppm) in acetone and purified water (50/50 mix by volume) containing 250 ppm of the surfactant […] (polyhydric alcohol esters). The resulting test suspensions were then used in Tests A-E.
(§2) The test solution was sprayed to the point of run-off on soybean seedlings. The following day the seedlings were inoculated with a spore suspension of Phakopsora pachyrhizi (the causal agent of Asian soybean rust) and incubated in a saturated atmosphere at 22° C. for 24 h, and then moved to a growth chamber at 22° C. for 8 days, after which time visual disease ratings were made.
(§3) Results for Tests A-E are given in Table A. In the Table, a rating of 100 indicates 100% disease control and a rating of 0 indicates no disease control (relative to the controls). An asterisk “*” or a double asterisk “**” or a triple asterisk “***” next to the rating value indicates a 50 ppm, 10 ppm and 250 ppm test suspension was used, respectively. A dash (-) indicates the compound was not tested.

[2] = tested on: Puccinia recondita f. sp. tritici (the causal agent of wheat leaf rust); assay: Test B: preventive spray on wheat seedlings, disease rating (100 = 100% control; * 50 ppm, ** 10 ppm, *** 250 ppm); format: in vivo; settings: wheat seedlings, 100 = 100% disease control
Excerpt: as §1
as §2, with “wheat” for “soybean”, “Puccinia recondita f. sp. tritici” for “Phakopsora pachyrhizi”, “wheat leaf” for “Asian soybean”, “20°” for “22°”, “6” for “8”, “time” for “time visual”
as §3

Row | Structure (SMILES) | Test A disease control rating ([1]; 10 ppm test suspension) [%] | Test B disease control rating ([2]; 10 ppm test suspension) [%] | Test A disease control rating ([1]; 50 ppm test suspension) [%] | Test B disease control rating ([2]; 50 ppm test suspension) [%]
1 | CN(C)S(=O)(=O)c1ccc(OCC(O)(O)C(F)(F)F)cc1 [compound 34] | 0 | 80 | – | –
2 | CCOC(=O)c1cnn(C(C)c2ccc(OCC(O)(O)C(F)(F)F)cc2)c1 (stereo not shown) [compound 35] | 99 | 32 | – | –
3 | O=C(NCC1CC1)c1cnn(Cc2ccc(OCC(O)(O)C(F)(F)F)cc2)c1 [compound 36] | 70 | 0 | – | –
4 | COC(=O)c1cnn(Cc2ccc(OCC(O)(O)C(F)(F)F)cc2)c1 [compound 37] | 99 | 86 | – | –
5 | C=CC(F)(F)OC(=O)c1cnn(Cc2ccc(OCC(O)(O)C(F)(F)F)cc2)c1 [compound 38] | 97 | 89 | – | –
6 | CC(C)OC(=O)c1cnn(Cc2ccc(OCC(O)(O)C(F)(F)F)cc2)c1 [compound 39] | 91 | 79 | – | –
7 | C=C(C)COC(=O)c1cnn(Cc2ccc(OCC(O)(O)C(F)(F)F)cc2)c1 [compound 40] | 91 | 68 | – | –
8 | CN(C)C(=O)C1=NOC(c2ccc(OCC(O)(O)C(F)(F)F)cc2)C1 (stereo not shown) [compound 41] | 92 | 23 | – | –
9 | CCCOC(=O)c1cnn(Cc2ccc(OCC(O)(O)C(F)(F)F)cc2)c1 [compound 42] | 99 | 85 | – | –
10 | C=CCOC(=O)c1cnn(Cc2ccc(OCC(O)(O)C(F)(F)F)cc2)c1 [compound 43] | 96 | 60 | – | –
11 | O=C(OCC(F)(F)F)c1cnn(Cc2ccc(OCC(O)(O)C(F)(F)F)cc2)c1 [compound 45] | 87 | 85 | – | –
12 | O=C(OCC(F)(F)C(F)(F)F)c1cnn(Cc2ccc(OCC(O)(O)C(F)(F)F)cc2)c1 [compound 46] | 64 | 85 | – | –
13 | O=C(OCc1ccccc1)c1cnn(Cc2ccc(OCC(O)(O)C(F)(F)F)cc2)c1 [compound 47] | – | – | 100 | 95
14 | CCCCCCOC(=O)c1cnn(Cc2ccc(OCC(O)(O)C(F)(F)F)cc2)c1 [compound 48] | – | – | 100 | 91
15 | O=C(OCc1ccc(Cl)c(Cl)c1)c1cnn(Cc2ccc(OCC(O)(O)C(F)(F)F)cc2)c1 [compound 49] | 0 | 86 | – | –
16 | O=C(OCc1ccc(F)c(F)c1)c1cnn(Cc2ccc(OCC(O)(O)C(F)(F)F)cc2)c1 [compound 50] | 54 | 91 | – | –
17 | CCOC(=O)c1cnn(Cc2ccc(OCC3(C(F)(F)F)OCCCO3)cc2)c1 [compound 52] | 99 | 0 | – | –
18 | CCOC(=O)c1cnn(Cc2ccc(O/C=C(\OC)C(F)(F)F)cc2)c1 [compound 53] | – | – | 100 | 67
19 | CCOC(=O)c1cnn(Cc2ccc(O/C=C(\OCCOC)C(F)(F)F)cc2)c1 [compound 54] | 0 | 0 | – | –
20 | C=CCO/C(=C\Oc1ccc(Cn2cc(C(=O)OCC)cn2)cc1)C(F)(F)F [compound 55] | 0 | 0 | – | –
21 | C#CCO/C(=C\Oc1ccc(Cn2cc(C(=O)OCC)cn2)cc1)C(F)(F)F [compound 56] | 38 | 0 | – | –
22 | CCO/C(=C\Oc1ccc(S(C)(=O)=O)cc1)C(F)(F)F [compound 60] | 0 | 0 | – | –

Row | Structure (SMILES) | Test A disease control rating ([1]; 10 ppm test suspension) [%] | Test B disease control rating ([2]; 10 ppm test suspension) [%] | Test A disease control rating ([1]; 50 ppm test suspension) [%] | Test B disease control rating ([2]; 50 ppm test suspension) [%]
23 | CCO/C(=C\Oc1ccc(S(=O)(=O)N(C)C)cc1)C(F)(F)F [compound 61] | 0 | 0 | – | –
24 | CCO/C(=C\Oc1ccc(CS(=O)(=O)CC)cc1)C(F)(F)F [compound 62] | 0 | 0 | – | –
25 | CCCO/C(=C\Oc1ccc(Cn2cc(C(=O)OCC)cn2)cc1)C(F)(F)F [compound 65] | 100 | 0 | – | –
26 | CCOC(=O)c1cnn(Cc2ccc(CCC(O)(O)C(F)(F)F)cc2)c1 [compound 66] | – | – | 92 | 89
27 | CCOC(=O)c1cnn(Cc2ccc(CCC3(C(F)(F)F)OCCO3)cc2)c1 [compound 67] | – | – | 65 | 0
28 | CCO/C(=C\Oc1ccc(C(=O)O)cc1)C(F)(F)F [compound 72] | – | – | 13 | 0
29 | CCO/C(=C\Oc1ccc(C(=O)OC(C)C)cc1)C(F)(F)F [compound 73] | 0 | 0 | – | –
30 | C=CCOC(=O)c1ccc(O/C=C(\OCC)C(F)(F)F)cc1 [compound 74] | 0 | 0 | – | –
31 | C#CCOC(=O)c1ccc(O/C=C(\OCC)C(F)(F)F)cc1 [compound 75] | 0 | 0 | – | –
32 | CC(C)CS(=O)(=O)NCc1ccc(OCC2(C(F)(F)F)OCCO2)cc1 [compound 76] | 0 | 0 | – | –
33 | FC(F)(F)C1(COc2ccc(CNC(=S)NC3CCCCC3)cc2)OCCO1 [compound 77] | 99 | 0 | – | –
34 | CCOC(=O)NCc1ccc(OCC2(C(F)(F)F)OCCO2)cc1 [compound 78] | 94 | 0 | – | –
35 | CCO/C(=C\Oc1ccc(C(C)=O)cc1)C(F)(F)F [compound 79] | – | – | 0 | 0
36 | CCO/C(=C\Oc1ccc(Cn2ncnc2C#N)cc1)C(F)(F)F [compound 81] | 0 | 0 | – | –
37 | CCO/C(=C\Oc1ccc(Cn2cnc(C#N)n2)cc1)C(F)(F)F [compound 82] | 97 | 0 | – | –
38 | CCOC(=O)Cc1nnn(Cc2ccc(O/C=C(\OCC)C(F)(F)F)cc2)n1 [compound 83] | 82 | 0 | – | –
39 | CCOC(=O)Cc1nnnn1Cc1ccc(O/C=C(\OCC)C(F)(F)F)cc1 [compound 84] | 0 | 0 | – | –
40 | CCO/C(=C\Oc1ccc(Cn2cncc2C(=O)OC)cc1)C(F)(F)F [compound 85] | 89 | 0 | – | –
41 | CCO/C(=C\Oc1ccc(Cn2cnc(C(=O)OC)c2)cc1)C(F)(F)F [compound 86] | 99 | 0 | – | –
42 | CCO/C(=C\Oc1ccc(Cn2ncc3cccnc32)cc1)C(F)(F)F [compound 87] | 0 | 0 | – | –
43 | CCO/C(=C\Oc1ccc(Cn2cc(C(=O)OC(C)(C)C)cn2)cc1)C(F)(F)F [compound 89] | 0 | 0 | – | –
44 | CCOC(=O)c1cc(OC)n(Cc2ccc(O/C=C(\OCC)C(F)(F)F)cc2)n1 [compound 90] | 100 | 0 | – | –
